This passage reports IC50 results from patent publication US8623859B2, “Bradykinin B1 antagonists” (Evotec AG, priority 2008, dated 2014).

This experiment addresses T1, human B1 (Homo sapiens, UniProt P46663).
T1 construct: host or cells: CHO-K1
T1 sequence (P46663 1-353): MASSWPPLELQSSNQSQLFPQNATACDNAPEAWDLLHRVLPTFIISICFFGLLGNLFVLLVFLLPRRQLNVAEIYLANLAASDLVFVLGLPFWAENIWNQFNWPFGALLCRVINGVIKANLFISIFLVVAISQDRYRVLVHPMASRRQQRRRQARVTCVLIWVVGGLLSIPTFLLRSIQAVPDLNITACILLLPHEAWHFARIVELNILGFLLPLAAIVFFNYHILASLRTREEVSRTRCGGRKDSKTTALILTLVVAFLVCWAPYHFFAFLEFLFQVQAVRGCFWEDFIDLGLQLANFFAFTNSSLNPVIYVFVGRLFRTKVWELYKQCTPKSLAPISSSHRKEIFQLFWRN
The experiment can be described thus: Calcium flux assay for Bradykinin B1 antagonist, CHO-K1 cell line expressing human B1. It counts as cell-based. To be noted: CHO-K1 cells expressing human B1, agonist Lys-(Des-Arg)-Bradykinin, read-out: Potency (IC50 value against human B1). In outline: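 CHO-K1 cells expressing human B1, loaded with 5 μM Fluo-4AM (2 h, 37° C) in HEPES buffer pH 7.4 with probenecid and 0.1% BSA, were preincubated 30 min at 25° C with compound (8 concentrations, triplicate, 1% DMSO) before B1 agonist addition. Ca2+ fluorescence monitored at 538 nm; background-normalized integrated values plotted against log antagonist concentration.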
For orientation: A change in cytosolic calcium serves as a functional read-out for many receptors and channels.

pIC50: −log10 of the molar value.

The term pIC50 denotes the IC50 on a negative log10 scale, so that one unit is a factor of ten.

Consider `COc1cc(C)c(S(=O)(=O)N(Cc2cc(C(=O)N3CCN(C4CCN(C)CC4)CC3)co2)C2CC2)c(C)c1` [Ex 53, N-cyclopropyl-4-methoxy-2,6-dimethyl-N-[(4-{[4-(1-methylpiperidin-4-yl)piperazin-1-yl]carbonyl}furan-2-yl)methyl]benzenesulfonamide], for which the pIC50 was 6.00 to 7.00.

For `COc1cc(C)c(S(=O)(=O)N(Cc2cc(C(=O)NCc3cccc(CN4CCCC4)c3)co2)C2CC2)c(C)c1` [Ex 54, 5-({Cyclopropyl[(4-methoxy-2,6-dimethylphenyl)sulfonyl]amino}methyl)-N-[3-(pyrrolidin-1-ylmethyl)benzyl]furan-3-carboxamide], the negative logarithm of the IC50 (pIC50) was 7.00 to 8.00.

With `COc1cc(C)c(S(=O)(=O)N(Cc2cc(C(=O)N(C)Cc3cccc(CN4CCCC4)c3)co2)C2CC2)c(C)c1` [Ex 55, 5-({Cyclopropyl[(4-methoxy-2,6-dimethylphenyl)sulfonyl]amino}methyl)-N-methyl-N-[3-(pyrrolidin-1-ylmethyl)benzyl]furan-3-carboxamide], the negative logarithm of the IC50 (pIC50) is 7.00 to 8.00.

`COc1cc(C)c(S(=O)(=O)N(Cc2cc(C(=O)NCc3ccc(CN4CCCC4)cc3)co2)C2CC2)c(C)c1` [Ex 56, 5-({Cyclopropyl[(4-methoxy-2,6-dimethylphenyl)sulfonyl]amino}methyl)-N-[4-(pyrrolidin-1-ylmethyl)benzyl]furan-3-carboxamide]: the pIC50 is 7.00 to 8.00.

As to `COc1cc(C)c(S(=O)(=O)N(Cc2cc(C(=O)N(C)Cc3ccc(CN4CCCC4)cc3)co2)C2CC2)c(C)c1` [Ex 57, 5-({Cyclopropyl[(4-methoxy-2,6-dimethylphenyl)sulfonyl]amino}methyl)-N-methyl-N-[4-(pyrrolidin-1-ylmethyl)benzyl]furan-3-carboxamide], the pIC50 is 7.00 to 8.00.

Turning to `COc1cc(C)c(S(=O)(=O)N(C)Cc2cc(C(=O)N(C)Cc3ccc(C4=NCCN4)cc3)c(C)o2)c(C)c1` [Ex 58, N-[4-(4,5-dihydro-1H-imidazol-2-yl)benzyl]-5-({[(4-methoxy-2,6-dimethylphenyl)sulfonyl](methyl)amino}methyl)-N,2-dimethylfuran-3-carboxamide], the pIC50 is 7.00 to 8.00.

As for `COc1cc(C)c(S(=O)(=O)N(C)Cc2cc(C(=O)N(C)CCc3ccc(C4=NCCN4)cc3)c(C)o2)c(C)c1` [Ex 59, N-{2-[4-(4,5-dihydro-1H-imidazol-2-yl)phenyl]ethyl}-5-({[(4-methoxy-2,6-dimethylphenyl)sulfonyl](methyl)amino}methyl)-N,2-dimethylfuran-3-carboxamide], the pIC50 was 6.00 to 7.00.

Turning to `COc1cc(C)c(S(=O)(=O)N(C)Cc2cc(C(=O)NCCc3ccc(C4=NCCN4)cc3)c(C)o2)c(C)c1` [Ex 61, N-{2-[4-(4,5-dihydro-1H-imidazol-2-yl)phenyl]ethyl}-5-({[(4-methoxy-2,6-dimethylphenyl)sulfonyl](methyl)amino}methyl)-2-methylfuran-3-carboxamide], the pIC50 was 7.00 to 8.00.

As to `COc1cc(C)c(S(=O)(=O)N(C)Cc2ccc(C(=O)N3CCN(C4CCN(C)CC4)CC3)o2)c(C)c1` [Ex 62, 4-Methoxy-N,2,6-trimethyl-N-[(5-{[4-(1-methylpiperidin-4-yl)piperazin-1-yl]carbonyl}furan-2-yl)methyl]benzenesulfonamide], the pIC50 is 6.00 to 7.00.

`COc1cc(C)c(S(=O)(=O)N(C)Cc2nsc(C(=O)NCCc3ccc(C4=NCCN4)cc3)n2)c(C)c1` [Ex 63, N-{2-[4-(4,5-dihydro-1H-imidazol-2-yl)phenyl]ethyl}-3-({[(4-methoxy-2,6-dimethylphenyl)sulfonyl](methyl)amino}methyl)-1,2,4-thiadiazole-5-carboxamide]: the pIC50 was > 8.00.

For the molecule `COc1cc(C)c(S(=O)(=O)N(C)Cc2noc(C(=O)NCCc3ccc(C4=NCCN4)cc3)n2)c(C)c1` [Ex 64, N-{2-[4-(4,5-dihydro-1H-imidazol-2-yl)phenyl]ethyl}-3-({[(4-methoxy-2,6-dimethylphenyl)sulfonyl](methyl)amino}methyl)-1,2,4-oxadiazole-5-carboxamide], the pIC50 was > 8.00.

As for `COc1cc(C)c(S(=O)(=O)N(C)Cc2cc(C(=O)N3CCN(C4CCN(C)CC4)CC3)no2)c(C)c1` [Ex 65, 4-Methoxy-N,2,6-trimethyl-N-[(3-{[4-(1-methylpiperidin-4-yl)piperazin-1-yl]carbonyl}isoxazol-5-yl)methyl]benzenesulfonamide], the pIC50 is 6.00 to 7.00.

Take `COc1cc(C)c(S(=O)(=O)N(C)Cc2nc(C(=O)N3CCN(C4CCN(C)CC4)CC3)co2)c(C)c1` [Ex 66, 4-Methoxy-N,2,6-trimethyl-N-[(4-{[4-(1-methylpiperidin-4-yl)piperazin-1-yl]carbonyl}-1,3-oxazol-2-yl)methyl]benzenesulfonamide]: the pIC50 is 7.00 to 8.00.

On to `COc1cc(C)c(S(=O)(=O)N(C)Cc2nc(C(=O)NCCc3ccc(C4=NCCN4)cc3)co2)c(C)c1` [Ex 67, N-{2-[4-(4,5-dihydro-1H-imidazol-2-yl)phenyl]ethyl}-2-({[(4-methoxy-2,6-dimethylphenyl)sulfonyl](methyl)amino}methyl)-1,3-oxazole-4-carboxamide], for which the negative-log IC50 (pIC50) is > 8.00.

`COc1cc(C)c(S(=O)(=O)N(C)Cc2nc(C(=O)NCc3ccc(C4=NCCN4)cc3)co2)c(C)c1` [Ex 68, N-[4-(4,5-dihydro-1H-imidazol-2-yl)benzyl]-2-({[(4-methoxy-2,6-dimethylphenyl)sulfonyl](methyl)amino}methyl)-1,3-oxazole-4-carboxamide]: the negative logarithm of the IC50 (pIC50) was 6.00 to 7.00.

As for `COc1cc(C)c(S(=O)(=O)N(C)Cc2nc(C(=O)N(C)CCc3ccc(C4=NCCN4)cc3)co2)c(C)c1` [Ex 69, N-{2-[4-(4,5-dihydro-1H-imidazol-2-yl)phenyl]ethyl}-2-({[(4-methoxy-2,6-dimethylphenyl)sulfonyl](methyl)amino}methyl)-N-methyl-1,3-oxazole-4-carboxamide], the pIC50 is > 8.00.

On to `COc1cc(C)c(S(=O)(=O)N(C)Cc2nc(C(=O)N(C)Cc3ccc(C4=NCCN4)cc3)co2)c(C)c1` [Ex 70, N-[4-(4,5-dihydro-1H-imidazol-2-yl)benzyl]-2-({[(4-methoxy-2,6-dimethylphenyl)sulfonyl](methyl)amino}methyl)-N-methyl-1,3-oxazole-4-carboxamide], for which the pIC50 is > 8.00.

Take `COc1cc(C)c(S(=O)(=O)N(C)Cc2nc(C(=O)N(C)Cc3ccc(CN4CCCC4)cc3)co2)c(C)c1` [Ex 71, 2({[(4-Methoxy-2,6dimethylphenyl)sulfonyl](methyl)amino}methyl)-N-methyl-N-[4-(pyrrolidin-1-ylmethyl)benzyl]-1,3-oxazole-4-carboxamide]: the negative logarithm of the IC50 (pIC50) was > 8.00.

`COc1cc(C)c(S(=O)(=O)N(C)Cc2nc(C(=O)NCc3ccc(CN4CCCC4)cc3)co2)c(C)c1` [Ex 72, 2-({[(4-Methoxy-2,6dimethylphenyl)sulfonyl](methyl)amino}methyl)-N-[4-(pyrrolidin-1-ylmethyl)benzyl]-1,3-oxazole-4-carboxamide]: the pIC50 is 7.00 to 8.00.

Regarding `COc1cc(C)c(S(=O)(=O)N(C)Cc2nc(C(=O)N(C)Cc3cccc(CN4CCCC4)c3)co2)c(C)c1` [Ex 73, 2-({[(4-Methoxy-2,6-dimethylphenyl)sulfonyl](methyl)amino}methyl)-N-methyl-N-[3-(pyrrolidin-1-ylmethyl)benzyl]-1,3-oxazole-4-carboxamide], the pIC50 is > 8.00.

Regarding `COc1cc(C)c(S(=O)(=O)N(C)Cc2nc(C(=O)NCc3cccc(CN4CCCC4)c3)co2)c(C)c1` [Ex 74, 2-({[(4-Methoxy-2,6-dimethylphenyl)sulfonyl](methyl)amino}methyl)-N-[3-(pyrrolidin-1-ylmethyl)benzyl]-1,3-oxazole-4-carboxamide], the pIC50 was > 8.00.

With `COc1cc(C)c(S(=O)(=O)N(Cc2nc(C(=O)N(C)Cc3ccc(CN4CCCC4)cc3)co2)C2CC2)c(C)c1` [Ex 75, 2-({Cyclopropyl[(4-methoxy-2,6-dimethylphenyl)sulfonyl]amino}methyl)-N-methyl-N-[4-(pyrrolidin-1-ylmethyl)benzyl]-1,3-oxazole-4-carboxamide], the negative-log IC50 (pIC50) was > 8.00.

Consider `COc1cc(C)c(S(=O)(=O)N(Cc2nc(C(=O)NCc3ccc(CN4CCCC4)cc3)co2)C2CC2)c(C)c1` [Ex 76, 2-({Cyclopropyl[(4-methoxy-2,6-dimethylphenyl)sulfonyl]amino}methyl)-N-[4-(pyrrolidin-1-ylmethyl)benzyl]-1,3-oxazole-4-carboxamide], for which the negative logarithm of the IC50 (pIC50) was > 8.00.

For the molecule `COc1cc(C)c(S(=O)(=O)N(Cc2nc(C(=O)N(C)Cc3cccc(CN4CCCC4)c3)co2)C2CC2)c(C)c1` [Ex 77, 2-({Cyclopropyl[(4-methoxy-2,6-dimethylphenyl)sulfonyl]amino}methyl)-N-methyl-N-[3-(pyrrolidin-1-ylmethyl)benzyl]-1,3-oxazole-4-carboxamide], the negative logarithm of the IC50 (pIC50) was > 8.00.

Regarding `COc1cc(C)c(S(=O)(=O)N(Cc2nc(C(=O)NCc3cccc(CN4CCCC4)c3)co2)C2CC2)c(C)c1` [Ex 78, 2-({Cyclopropyl[(4-methoxy-2,6-dimethylphenyl)sulfonyl]amino}methyl)-N-[3-(pyrrolidin-1-ylmethyl)benzyl]-1,3-oxazole-4-carboxamide], the negative logarithm of the IC50 (pIC50) was > 8.00.

Turning to `COc1cc(C)c(S(=O)(=O)N(Cc2nc(C(=O)N(C)CCc3ccc(C4=NCCN4)cc3)co2)C2CC2)c(C)c1` [Ex 79, 2-({Cyclopropyl[(4-methoxy-2,6-dimethylphenyl)sulfonyl]amino}methyl)-N-{2-[4-(4,5-dihydro-1H-imidazol-2-yl)phenyl]ethyl}-N-methyl-1,3-oxazole-4-carboxamide], the negative logarithm of the IC50 (pIC50) was > 8.00.
